IC50 data for 49 compounds are collected here from patent publication US20210139484A1, “DIHYDROISOQUINOLINE-2(1H)-CARBOXAMIDE AND RELATED COMPOUNDS AND THEIR USE IN TREATING MEDICAL CONDITIONS” (GOSSAMER BIO SERVICES, INC., priority 2018, published 2021).

For orientation: IC50 means the concentration that gives 50% inhibition. A high value points to weaker potency.

The target in one assay is T1, human HPK1 protein (Homo sapiens, UniProt Q92918).
T1 construct: recombinant human HPK1 protein (a.a. 1-346) was expressed in Sf9 insect cells; GST (N); purchased Signalchem M23-11G; host or cells: Sf9 insect cells (baculovirus)
T1 sequence (Q92918 1-346): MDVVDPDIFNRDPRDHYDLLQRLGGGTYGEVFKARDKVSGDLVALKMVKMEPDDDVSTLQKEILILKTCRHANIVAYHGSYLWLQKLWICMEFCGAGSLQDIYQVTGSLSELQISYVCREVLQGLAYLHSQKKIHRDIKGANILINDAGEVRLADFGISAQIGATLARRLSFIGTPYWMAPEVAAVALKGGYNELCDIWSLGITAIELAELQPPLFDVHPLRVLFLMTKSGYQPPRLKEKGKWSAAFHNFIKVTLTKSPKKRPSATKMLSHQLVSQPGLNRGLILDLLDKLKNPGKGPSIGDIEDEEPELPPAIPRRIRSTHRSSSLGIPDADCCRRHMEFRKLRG
The assay is described as follows: Human HPK1 protein TR-FRET assay. Format: biochemical. To be noted: 1 mM ATP, Table 19. A digest of the protocol:
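GST-tagged HPK1 (a.a. 1-346, Sf9-expressed) at 10 nM phosphorylated 100 nM ULight CREBtide with 1 mM ATP in Tris pH 7.5, MgCl2, NP-40, DTT, 1% DMSO, 60 minutes at room temperature. Phospho-Ser133 detected by Eu-antibody TR-FRET (665/615 nm ratio); IC50 from 4-parameter fit against DMSO control.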
(In TR-FRET formats the signal depends on donor and acceptor labels being close together.)
Compound `Cc1cc2c(Oc3ccc4c(c3)[C@H](C)N(C(=O)Nc3cnc(OC5CCN(C)CC5)c(C(F)(F)F)c3)CC4)ccnc2[nH]1` [VI-2] registered an IC50 of less than 500 nM.
`CCN1CCN(Cc2ccc(NC(=O)N3Cc4cc(Oc5ccnc6[nH]c(C)cc56)c(F)cc4C(C)C3)cc2C(F)(F)F)CC1` (stereo not shown) [IV-29] gave an IC50 of less than 500 nM.
`CC1CN(C(=O)Nc2cnc(OC3CCN(C)CC3)c(C(F)(F)F)c2)Cc2cc(Oc3ccnc4[nH]ncc34)cnc21` (stereo not shown) [VII-9] registered an IC50 of 500 to 5000 nM.
Regarding `CCN1CCN(Cc2ccc(NC(=O)N3Cc4cc(Oc5ccnc6[nH]c(C)cc56)ccc4C(C)C3)cc2C(F)(F)F)CC1` (stereo not shown) [IV-19], the 50% inhibitory concentration (IC50) was less than 500 nM.
The same measure, in the same setting: next, `C[C@H]1c2cc(Oc3ccnc4[nH]ccc34)ccc2CCN1C(=O)Nc1ccc(CN2CCN(C3COC3)CC2)c(C(F)(F)F)c1` [V-21]: 500 to 5000 nM; `CCN1CCN(Cc2ccc(NC(=O)N3CCc4ccc(Oc5ncnc6[nH]ncc56)cc4C3)cc2C(F)(F)F)CC1` [II-5]: less than 500 nM; `CCN1CCN(Cc2ccc(NC(=O)N3Cc4cc(Oc5ccnc6[nH]ccc56)cnc4C(C)C3)cc2C(F)(F)F)CC1` (stereo not shown) [compound 10, 3-((1H-Pyrrolo[2,3-b]pyridin-4-yl)oxy)-N-(4-((4-ethylpiperazin-1-yl)methyl)-3-(trifluoromethyl)phenyl)-8-methyl-7,8-dihydro-1,6-naphthyridine-6(5H)-carboxamide]: less than 500 nM.
For `CCN1CCN(Cc2ccc(NC(=O)N3CCc4ccc(Oc5c(C)cnc6[nH]ccc56)cc4C3)cc2C(F)(F)F)CC1` [III-6], the IC50 lay in the range of 500 to 5000 nM.
Turning to `CCN1CCN(Cc2ccc(NC(=O)N3CCc4ncc(Oc5ccnc6[nH]ncc56)cc4C3C)cc2C(F)(F)F)CC1` (stereo not shown) [VIII-3], the IC50 is 500 to 5000 nM.
With `CCN1CCN(Cc2ccc(NC(=O)N3CCc4ccc(Oc5ccnc6[nH]c(C7(O)COC7)cc56)cc4[C@@H]3C)cc2C(F)(F)F)CC1` [V-23], the 50% inhibitory concentration (IC50) is less than 500 nM.
Compound `C[C@H]1c2cc(Oc3ccnc4[nH]ccc34)ccc2CCN1C(=O)Nc1ccc(CN2CCN(CCO)CC2)c(C(F)F)c1` [V-18] yielded a 50% inhibitory concentration (IC50) of less than 500 nM.
`CCN1CCN(Cc2ccc(NC(=O)N3CCc4ccc(Oc5ncnn6cccc56)cc4C3)cc2C(F)(F)F)CC1` [compound 1, N-[4-[(4-Ethylpiperazin-1-yl)methyl]-3-(trifluoromethyl)phenyl]-7-[pyrrolo[2,1-f][1,2,4]triazin-4-yloxy]-1,2,3,4-tetrahydroisoquinoline-2-carboxamide] returned an IC50 of less than 500 nM.
As to `CCN1CCN(Cc2ccc(NC(=O)N3CCc4ccc(Oc5cc(NC(C)=O)ncn5)cc4C3)cc2C(F)(F)F)CC1` [II-9], the IC50 is less than 500 nM.
Still for that read-out and setting: next, `Cc1cc2c(Oc3ccc4c(c3)[C@H](C)N(C(=O)Nc3cnc(OCCn5ccnc5)c(C(F)(F)F)c3)CC4)ccnc2[nH]1` [VI-17]: 500 to 5000 nM.
As for `Cc1cc2c(Oc3cnc4c(c3)CN(C(=O)Nc3cnc(OC5CCN(C)CC5O)c(C(F)(F)F)c3)CC4C)ccnc2[nH]1` (stereo not shown) [VII-19], the IC50 was less than 500 nM.
Regarding `CCN1CCN(Cc2ccc(NC(=O)N3CC(=O)c4ccc(Oc5ccnc6[nH]c(C)cc56)cc4C3)cc2C(F)(F)F)CC1` [compound 17, N-(4-((4-ethylpiperazin-1-yl)methyl)-3-(trifluoromethyl)phenyl)-7-((2-methyl-1H-pyrrolo[2,3-b]pyridin-4-yl)oxy)-4-oxo-3,4-dihydroisoquinoline-2(1H)-carboxamide], the IC50 is less than 500 nM.
`CCN1CCN(Cc2ccc(NC(=O)N3CCc4cc(Oc5ccnc6[nH]ccc56)ccc4C3)cc2C(F)(F)F)CC1` [X-1] returned a half-inhibitory concentration (IC50) of 500 to 5000 nM.
Same read-out and setting: next, `Cc1cc2c(Oc3cnc4c(c3)CN(C(=O)Nc3cnc(OC5CCN(C)CC5)c(C(F)(F)F)c3)CC4C)ccnc2[nH]1` (stereo not shown) [VII-6]: less than 500 nM.
For the compound `CCN1CCN(Cc2ccc(NC(=O)N3CCc4cc(F)c(Oc5ccnc6[nH]ccc56)cc4C3C)cc2C(F)(F)F)CC1` (stereo not shown) [IV-7], the IC50 was in the range of 500 to 5000 nM.
For the compound `CCN1CCN(Cc2ccc(NC(=O)N3CCc4ncc(Oc5ccnc6[nH]c(C)cc56)cc4C3C)cc2C(F)(F)F)CC1` (stereo not shown) [VIII-1], the 50% inhibitory concentration (IC50) fell in the range of 500 to 5000 nM.
As for `CCN1CCN(Cc2ccc(NC(=O)N3CCc4ccc(Oc5ncnn6cc(F)cc56)cc4C3)cc2C(F)(F)F)CC1` [II-8], the IC50 was less than 500 nM.

Staying with this assay, now noted: 1 mM ATP, Table 20.
The compound `CC[C@@H]1CN(C(=O)Nc2ccc(CN3CCN(C)CC3)c(C(F)F)c2)Cc2cc(Oc3ncnc4[nH]c(C5CC5)cc34)ccc21` [XV-1] returned an IC50 of less than 500 nM.
On the same count and under the same terms, next, `C[C@H]1c2cc(Oc3c(F)cnc4[nH]c(-c5cnn(C)c5)cc34)ccc2CCN1C(=O)Nc1ccc(CN2CCN(C)CC2)c(C(F)(F)F)c1` [XII-3]: less than 500 nM; `CC[C@@H]1CN(C(=O)Nc2ccc(CN3CCN(CC)CC3)c(C(F)(F)F)c2)Cc2cc(Oc3ncnc4[nH]c(C5CC5)cc34)cnc21` [XIV-37]: less than 500 nM; `CCN1CCN(Cc2ccc(NC(=O)N3Cc4cc(Oc5ccnc6[nH]c(-c7cnn(C)c7)nc56)cnc4C(C)C3)cc2C(F)(F)F)CC1` (single isomer, unassigned) [XIV-30]: less than 500 nM.
`C[C@H]1c2cc(Oc3ccnc4[nH]c(CO)cc34)ccc2CCN1C(=O)Nc1ccc(CN2CCN(C)CC2)c(C(F)F)c1` [XIII-9] showed an IC50 of less than 500 nM.
Compound `CC[C@H]1CN(C(=O)Nc2ccc(CN3CCNCC3)c(C(F)(F)F)c2)Cc2cc(Oc3ccnc4[nH]c(-c5n[nH]c(=O)o5)cc34)cnc21` [XIV-130] registered an IC50 of less than 500 nM.
`CN1CCN(Cc2ccc(NC(=O)N3CCc4ccc(Oc5c(F)cnc6[nH]c(-c7cn[nH]c7)cc56)cc4C3)cc2C(F)(F)F)CC1` [XII-9] yielded a half-inhibitory concentration (IC50) of less than 500 nM.
Turning to `CC[C@H]1Cc2ncc(Oc3ccnc4[nH]ccc34)cc2CN1C(=O)Nc1ccc(CN2CCN(CC)CC2)c(C(F)(F)F)c1` [XVIII-16], the IC50 was less than 500 nM.
In the case of `CC[C@H]1CN(C(=O)Nc2ccc(CN3CCNCC3)c(C(F)(F)F)c2)Cc2cc(Oc3ccnc4[nH]c(-c5noc(C)n5)cc34)cnc21` [XIV-136], the IC50 is less than 500 nM.
With `CC[C@@H]1CN(C(=O)Nc2ccc(CN3CCN(C)CC3)c(C(F)F)c2)Cc2cc(Oc3ccnc4[nH]c(CO)cc34)ccc21` [XV-8], the half-maximal inhibitory concentration (IC50) was less than 500 nM.
`CC[C@@H]1CN(C(=O)Nc2ccc(CN3CCNCC3)c(C(F)(F)F)c2)Cc2cc(Oc3ccnc4[nH]c(CO)cc34)cnc21` [XIV-45] showed an IC50 of less than 500 nM.
For the compound `CC[C@@H]1CN(C(=O)Nc2ccc(CN3CCN(CC)CC3)c(C(F)(F)F)c2)Cc2cc(Oc3ccnc4[nH]c(CO)cc34)cnc21` [XIV-28], the IC50 is less than 500 nM.
Still for that read-out and setting: next, `CC[C@H]1CN(C(=O)Nc2cnc(CN3CCN(CC)CC3)c(C(F)(F)F)c2)Cc2cc(Oc3ccnc4[nH]ccc34)cnc21` [XIV-10]: less than 500 nM.
On the same count and under the same terms, next, `CC[C@@H]1CN(C(=O)Nc2ccc(CN3CCN(CC)CC3)c(C(F)(F)F)c2)Cc2cc(Oc3ccnc4[nH]c(C5(O)CC5)cc34)cnc21` [XIV-76]: less than 500 nM; `CC[C@H]1CN(C(=O)Nc2ccc(CN3CCN(CC)CC3)c(C(F)(F)F)c2)Cc2cc(Oc3ccnc4[nH]c(C#N)cc34)cnc21` [XIV-20]: less than 500 nM; `CC[C@H]1CN(C(=O)Nc2ccc(CN3CCN(CC)CC3)c(C(F)(F)F)c2)Cc2cc(Oc3ccnc4[nH]c(C(=O)N(C)C)cc34)cnc21` [XIV-131]: less than 500 nM.
`CN1CCN(Cc2ccc(NC(=O)N3CCc4ccc(Oc5c(F)cnc6[nH]c(-c7cccnc7)cc56)cc4C3)cc2C(F)(F)F)CC1` [XII-7] returned an IC50 of less than 500 nM.
In the case of `Cc1cc2c(Oc3cnc4c(c3)CN(C(=O)Nc3ccc(CN5CCNC6(CC6)C5)c(C(F)(F)F)c3)C[C@H]4C)ccnc2[nH]1` [XIV-94], the IC50 is less than 500 nM.
Turning to `CC[C@H]1CN(C(=O)Nc2ccc(CN3CCN(C)CC3)c(C(F)F)c2)Cc2cc(Oc3ccnc4[nH]c(C5CC5)cc34)cnc21` [XIV-59], the IC50 was less than 500 nM.
The same measure, in the same setting: next, `CC[C@@H]1CN(C(=O)Nc2ccc(CN3CCN(C)CC3)c(C(F)(F)F)c2)Cc2cc(Oc3ccnc4[nH]c(C5CC5)cc34)cnc21` [XIV-73]: less than 500 nM; `CCN1CCN(Cc2ccc(NC(=O)N3CCc4c(cc(F)cc4Oc4ncnn5cccc45)C3)cc2C(F)(F)F)CC1` [XI-2]: 500 to 5000 nM; `CC[C@H]1CN(C(=O)Nc2ccc(CN3CCN(CCO)CC3)c(C(F)F)c2)Cc2cc(Oc3ncnc4[nH]c(C5CC5)cc34)ccc21` [XV-2]: less than 500 nM.
`CC[C@@H]1CN(C(=O)Nc2ccc(CN3CCN(C)CC3)c(C(F)(F)F)c2)Cc2cc(Oc3ccnc4[nH]c(C5(O)COC5)cc34)cnc21` [XIV-50] registered an IC50 of less than 500 nM.
The same measure, in the same setting: next, `CC[C@@H]1CN(C(=O)Nc2ccc(CN3CCN(CC)CC3)c(C(F)(F)F)c2)Cc2cc(Oc3ccnc4[nH]c(C5CC5)cc34)cnc21` [XIV-23]: less than 500 nM; `CCN1CCN(Cc2ccc(NC(=O)N3CCc4ccc(Oc5cc(NC(=O)c6cnn(C)c6)ncc5F)cc4[C@@H]3C)cc2C(F)(F)F)CC1` [XIII-17]: less than 500 nM; `CC[C@H]1CN(C(=O)Nc2ccc(CN3CCNCC3)c(C(F)(F)F)c2)Cc2cc(Oc3ccnn4cc(C(=O)N(C)C)cc34)cnc21` [XIV-124]: less than 500 nM.
Take `CC[C@H]1CN(C(=O)Nc2ccc(CN3CCN(C)CC3)c(C(F)(F)F)c2)Cc2cc(Oc3ccnc4[nH]c(-c5n[nH]c(=O)o5)cc34)cnc21` [XIV-114]: the IC50 was less than 500 nM.
Compound `CCC1CN(C(=O)Nc2ccc(CN3CCN(CC)CC3)c(C(F)(F)F)c2)Cc2cc(Oc3ncnc4[nH]c(C)cc34)cnc21` (stereo not shown) [XIV-4] showed a half-inhibitory concentration (IC50) of less than 500 nM.
